Values after ≈ are worked out from the molar mass of the structure shown. Values belong to the molecule of their own block, whether it stands above or below them.
Assays:
Assay in all cases: ≥ marks a high value that may be exact or a test limit, other limits are often not marked, values filed in µg/mL are converted to µM
[1] = test system: Candida albicans ATCC 18804
[2] = test system: Escherichia coli ATCC 25922
[3] = test system: Staphylococcus aureus ATCC 25923
[4] = test system: Bacillus cereus IFO 3457
[5] = test system: Bacillus subtilis ATCC 6633
[6] = test system: Bacillus subtilis IFO 13722
[7] = test system: Escherichia coli ATCC 39188
[8] = test system: Escherichia coli CE273
[9] = test system: Escherichia coli CR3
[10] = test system: Escherichia coli JCM 1649
[11] = test system: Escherichia coli NIHJ JC-2
[12] = test system: Salmonella enterica subsp. enterica serovar Enteritidis ATCC 1891
[13] = test system: Salmonella enterica subsp. enterica serovar Typhimurium ATCC 14028
[14] = test system: Staphylococcus aureus FDA 209P JC-1
[15] = test system: Staphylococcus aureus IFO 13276
[16] = test system: Staphylococcus aureus JCM 2431
[17] = test system: Staphylococcus aureus Smith
[18] = test system: Vibrio parahaemolyticus IFO12711
[19] = test system: Bacillus subtilis CICC 24434
[20] = test system: Bacillus subtilis KCTC 1918
[21] = test system: Escherichia coli ATCC 12795
[22] = test system: Escherichia coli CCARM 1229
[23] = test system: Escherichia coli CCARM 1238
[24] = test system: Escherichia coli E44813
[25] = test system: Escherichia coli KCTC 1682
[26] = test system: Listeria monocytogenes CICC 21533
[27] = test system: Pasteurella multocida C48-3
[28] = test system: Pasteurella multocida
[29] = test system: Proteus vulgaris KCTC 2433
[30] = test system: Pseudomonas aeruginosa ATCC 15692
[31] = test system: Pseudomonas aeruginosa KCTC 1637
[32] = test system: Salmonella enterica subsp. enterica serovar Choleraesuis C78-1
[33] = test system: Salmonella typhimurium CCARM 8009
[34] = test system: Salmonella typhimurium CCARM 8013
[35] = test system: Salmonella typhimurium KCTC 1926
[36] = test system: Salmonella typhimurium SL1344
[37] = test system: Staphylococcus aureus KCTC 1621
[38] = test system: Staphylococcus epidermidis LY8
[39] = test system: Streptococcus pyogenes KCTC 3096

MIC [1]: ≥ 128 µM
MIC [2]: 128 µM (≈ 393 µg/mL)
MIC [3]: > 128 µM
SMILES: CC[C@H](C)[C@H](NC(=O)[C@H](C)NC(=O)[C@H](CCC(=O)O)NC(=O)[C@H](CO)NC(=O)[C@@H](N)Cc1ccccc1)C(=O)N[C@@H](CCCCN)C(=O)N[C@@H](CCCCN)C(=O)N[C@H](C(=O)N[C@H](C(=O)N[C@@H](CC(=O)O)C(=O)N[C@@H](Cc1ccccc1)C(=O)N[C@@H](CC(C)C)C(=O)NCC(=O)N[C@@H](CCC(=O)O)C(=O)NCC(=O)N[C@@H](CC(C)C)C(=O)N[C@@H](Cc1ccccc1)C(=O)N[C@@H](CC(=O)O)C(=O)N[C@H](C(=O)N[C@H](C(=O)N[C@@H](CCCCN)C(=O)N[C@@H](CCCCN)C(=O)N[C@H](C(=O)N[C@@H](C)C(=O)N[C@@H](CCC(=O)O)C(=O)N[C@@H](CO)C(=O)N[C@@H](Cc1ccccc1)C(=O)O)[C@@H](C)CC)[C@@H](C)CC)[C@@H](C)CC)[C@@H](C)CC)[C@@H](C)CC [FSEAIKKIIDFLGEGLFDIIKKIAESF]

MIC [4]: 3.1 µM (≈ 7.49 µg/mL)
MIC [5]: 3.1 µM (≈ 7.49 µg/mL)
MIC [6]: 6.3 µM (≈ 15.2 µg/mL)
MIC [7]: 3.1 µM (≈ 7.49 µg/mL)
MIC [8]: 3.1 µM (≈ 7.49 µg/mL)
MIC [9]: 6.3 µM (≈ 15.2 µg/mL)
MIC [10]: 6.3 µM (≈ 15.2 µg/mL)
MIC [11]: 3.1 µM (≈ 7.49 µg/mL)
MIC [12]: 6.3 µM (≈ 15.2 µg/mL)
MIC [13]: 6.3 µM (≈ 15.2 µg/mL)
MIC [14]: 1.6 µM (≈ 3.87 µg/mL)
MIC [15]: 25 µM (≈ 60.4 µg/mL)
MIC [16]: 12.5 µM (≈ 30.2 µg/mL)
MIC [17]: 6.3 µM (≈ 15.2 µg/mL)
SMILES: CC[C@H](C)[C@H](NC(=O)CNC(=O)[C@H](CCCCN)NC(=O)[C@H](Cc1c[nH]c2ccccc12)NC(=O)[C@H](CC(N)=O)NC(=O)[C@@H](N)CCCCN)C(=O)N[C@@H](C)C(=O)NCC(=O)N[C@@H](CCSC)C(=O)N[C@@H](C)C(=O)N[C@@H](CCCCN)C(=O)N[C@@H](CCCCN)C(=O)N[C@@H](CC(C)C)C(=O)N[C@@H](CC(C)C)C(=O)NCC(=O)N[C@@H](CCCCN)C(=O)N[C@@H](CC(N)=O)C(=O)N[C@@H](Cc1c[nH]c2ccccc12)C(=O)N[C@@H](CCCCN)C(=O)N[C@@H](CC(C)C)C(=O)N[C@@H](CCSC)C(=O)O [KNWKGIAGMAKKLLGKNWKLM]
MIC [18]: ≥ 50 µM

MIC [19]: 0.527 µM (≈ 1.56 µg/mL)
MIC [20]: 1.56 µM (≈ 4.62 µg/mL)
MIC [21]: 0.4 µM (≈ 1.19 µg/mL)
MIC [2]: 4 µM (≈ 11.9 µg/mL)
MIC [22]: 4 µM (≈ 11.9 µg/mL)
MIC [23]: 2 µM (≈ 5.93 µg/mL)
MIC [24]: 8.44 µM (≈ 25 µg/mL)
MIC [25]: 1.56 µM (≈ 4.62 µg/mL)
MIC [26]: ≥ 42.2 µM
MIC [27]: 1.05 µM (≈ 3.12 µg/mL)
MIC [28]: 6.8 µM (≈ 20.1 µg/mL)
MIC [29]: 16 µM (≈ 47.4 µg/mL)
MIC [30]: 8 µM (≈ 23.7 µg/mL)
MIC [31]: 1.56 µM (≈ 4.62 µg/mL)
MIC [33]: 4 µM (≈ 11.9 µg/mL)
MIC [34]: 4 µM (≈ 11.9 µg/mL)
MIC [35]: 1.77 µM (≈ 5.23 µg/mL)
MIC [36]: 1.05 µM (≈ 3.12 µg/mL)
MIC [3]: 0.0165 µM (≈ 0.0489 µg/mL)
MIC [37]: 3.12 µM (≈ 9.26 µg/mL)
MIC [38]: 8.44 µM (≈ 25 µg/mL)
MIC [39]: 1.56 µM (≈ 4.62 µg/mL)
SMILES: CC[C@H](C)[C@H](NC(=O)[C@@H](NC(=O)[C@@H](N)CCCN=C(N)N)[C@@H](C)CC)C(=O)N[C@@H](CC(=O)O)C(=O)N[C@@H](CC(C)C)C(=O)N[C@@H](CC(C)C)C(=O)N[C@@H](Cc1c[nH]c2ccccc12)C(=O)N[C@@H](CCCN=C(N)N)C(=O)N[C@H](C(=O)N[C@@H](CCCN=C(N)N)C(=O)N[C@@H](CCCN=C(N)N)C(=O)N1CCC[C@H]1C(=O)N[C@@H](CCC(N)=O)C(=O)N[C@@H](CCCCN)C(=O)N1CCC[C@H]1C(=O)N[C@@H](CCCCN)C(=O)N[C@@H](Cc1ccccc1)C(=O)N[C@H](C(=O)N[C@H](C(=O)N[C@H](C(=O)N[C@@H](Cc1c[nH]c2ccccc12)C(=O)N[C@H](C(=O)N[C@@H](CCCN=C(N)N)C(=O)O)C(C)C)C(C)C)[C@@H](C)O)C(C)C)C(C)C [RIIDLLWRVRRPQKPKFVTVWVR]
MIC [32]: 0.527 µM (≈ 1.56 µg/mL)

— DBAASP
